From PubChem BioAssay AID1918958 (Molecular Pharmacology Branch, DTP, NCI, 2023)

Test system: NCI-H196 complex spheroid viability
Assay: Anticancer human tumor NCI-H196 cell line growth inhibition [LSD1];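 note: spheroids exposed to agents for 7 days before readout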;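 for viability, T/C: 100% = DMSO vehicle control viability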
Conditions: for IC50: curve of first compound; for viability, T/C: stronger effect = lower value
Excerpt: Multicellular complex tumor spheroid response to LSD1 Inhibitor Iadademstat in combination with a variety of drugs and investigational agents in selected tumor cell lines
The current study was undertaken to assess response to LSD1 inhibitors in combination with standard-of-care drugs and investigational agents in solid tumor complex spheroid models as well as in the K-562 leukemia. Complex spheroids include a stromal component modeled by human endothelial cells (HUVEC) and fibroblasts modeled by human mesenchymal stem cells (MSCs). The concentration ranges selected for each drug and investigational agent were based upon clinically achievable concentrations if the clinical Cmax of the agent was known.
Compounds. The drugs and investigational agents used in this study are listed on Table 1. All of the agents used, including staurosporine (NSC755774) and gemcitabine (NSC613327), were obtained from the Developmental Therapeutics Program, NCI. FDA-approved anticancer drugs are available from the NCI at http://dtp.nci.nih.gov/branches/dscb/oncology_drugset_explanation.html. Drugs and investigational agents were >95% pure by proton nuclear magnetic resonance (NMR) and liquid chromatography/mass spectrometry (LC/MS). Stock solutions were prepared at 400x in DMSO, stored at -70 degrees C, and diluted in fresh medium prior to their use. The final concentration of DMSO in cell culture wells never exceeded 0.25% (v/v). The FDA-approved anticancer drug set is available from the Developmental Therapeutics Program at https://dtp.cancer.gov/organization/dscb/obtaining/available_plates.htm. All drugs and investigational agents were tested over a range starting from a high concentration at or near the clinical Cmax and decreasing in half-log increments. If the clinical Cmax for an agent had not been determined, the highest concentration tested was 10 microM.
Cell Lines. The patient-derived cancer cell (PDC) lines: 292921-168-R-J2-PDC, K24384-001-R-PDC, and 521955-158-R2-J5-PDC pancreatic carcinomas, 556581-035-R-J1 ovarian carcinoma, 324938-238-R-J1-PDC, 855422-203-R-J1-PDC and 883617-216-R-J1-PDC urothelial bladder carcinomas, 743489-274-T-PDC renal cell carcinoma, 138582-R-J1 Merkel cell tumor, K60290-347-R-J1 and K57222-313-R-J1-PDC glioblastomas, 653999-131-R-J2-PDC, LG0703-F948-PDC, and 349418-098-R-PDC non-small cell lung carcinomas, 885512-296-R-J2-PDC, 171881-019-R-J1-PDC breast carcinomas and 186277-243-T-J2-PDC and 233499-124-R-J2-PDC colon carcinomas were obtained from the NCI Patient-Derived Models Repository (PDMR, https://pdmr.cancer.gov). The established cell lines NCI/ADR-RES (RRID:CVCL_14520 and OVCAR-5 (RRID:CVCL_1628) ovarian carcinomas, 786-O (RRID:CVCL_1051) and A498 (RRID:CVCL_A498) renal cell carcinoma, NCI-H211 (ATCC, cat. CRL-5824; RRID:CVCL_1529), NCI-H196 (ATCC, cat. CRL-5823, RRID:CVCL_1509), SW 1271 (ATCC, cat. CRL-2177, RRID:CVCL_1716) and NCI-H1876 (ATCC, cat. CRL-5902, RRID:CVCL_1503) small cell lung carcinomas, MDA-MB-231 (RRID:CVCL_0062) and MDA-MB-468 (RRID:CVCL_0419)breast carcinomas (10-12). Pooled donor human umbilical vein endothelial cells (HUVEC, Lonza, cat. CC-2519) and human mesenchymal stem cells (hMSC, Lonza, cat. PT-2501) were purchased from Lonza (Walkersville, MD).
Cell Culture. All cells were maintained in an incubator at 37 degrees C and 5% CO2 with 95% humidity. The PDC lines were cultured according to standard operating procedures established by the NCI PDMR (https://pdmr.cancer.gov). Briefly all PDCs were thawed and cultured in Matrigel-coated flasks prepared with a working solution of 1X Ham's F-12 nutrient mix, without supplementation (Invitrogen, Waltham, MA, cat. 11765054), 100 U/mL penicillin-streptomycin (Invitrogen, cat. 15140122), and 2.5% Matrigel (Corning Inc., Corning, NY, cat. 354248) for the first three passages. […]

CC[C@@]1(O)C(=O)OCc2c1cc1n(c2=O)Cc2cc3c(CN(C)C)c(O)ccc3nc2-1 + NC1CC1c1ccc(-c2cccc(O)c2)cc1
IC50 (second compound 0.1 µM): > 0.1 µM | IC50 (second compound 0.316 µM): > 0.1 µM | IC50 (second compound 1 µM): > 0.1 µM | IC50 (second compound 3.16 µM): > 0.1 µM | IC50 (second compound 10 µM): > 0.1 µM | viability, T/C (second compound 0.1 µM, first compound 0.000316 µM): 95.1% | viability, T/C (second compound 0.1 µM, first compound 0.001 µM): 101% | viability, T/C (second compound 0.1 µM, first compound 0.00316 µM): 115% | viability, T/C (second compound 0.1 µM, first compound 0.01 µM): 105% | viability, T/C (second compound 0.1 µM, first compound 0.0316 µM): 95.7% | viability, T/C (second compound 0.1 µM, first compound 0.1 µM): 99.5% | viability, T/C (second compound 0.316 µM, first compound 0.000316 µM): 97.3% | viability, T/C (second compound 0.316 µM, first compound 0.001 µM): 104% | viability, T/C (second compound 0.316 µM, first compound 0.00316 µM): 102% | viability, T/C (second compound 0.316 µM, first compound 0.01 µM): 109% | viability, T/C (second compound 0.316 µM, first compound 0.0316 µM): 109% | viability, T/C (second compound 0.316 µM, first compound 0.1 µM): 95.9% | viability, T/C (second compound 1 µM, first compound 0.000316 µM): 92.4% | viability, T/C (second compound 1 µM, first compound 0.001 µM): 93.8% | viability, T/C (second compound 1 µM, first compound 0.00316 µM): 104% | viability, T/C (second compound 1 µM, first compound 0.01 µM): 100% | viability, T/C (second compound 1 µM, first compound 0.0316 µM): 103% | viability, T/C (second compound 1 µM, first compound 0.1 µM): 94.8% | viability, T/C (second compound 3.16 µM, first compound 0.000316 µM): 90.7% | viability, T/C (second compound 3.16 µM, first compound 0.001 µM): 95.3% | viability, T/C (second compound 3.16 µM, first compound 0.00316 µM): 92.2% | viability, T/C (second compound 3.16 µM, first compound 0.01 µM): 101% | viability, T/C (second compound 3.16 µM, first compound 0.0316 µM): 91% | viability, T/C (second compound 3.16 µM, first compound 0.1 µM): 82.6% | viability, T/C (second compound 10 µM, first compound 0.000316 µM): 88.8% | viability, T/C (second compound 10 µM, first compound 0.001 µM): 90.4% | viability, T/C (second compound 10 µM, first compound 0.00316 µM): 102% | viability, T/C (second compound 10 µM, first compound 0.01 µM): 115% | viability, T/C (second compound 10 µM, first compound 0.0316 µM): 98.2% | viability, T/C (second compound 10 µM, first compound 0.1 µM): 78.2%

COc1cc(C2c3cc4c(cc3C(OC3OC5COC(C)OC5C(O)C3O)C3COC(=O)C23)OCO4)cc(OC)c1O (stereo not given) + NC1CC1c1ccc(-c2cccc(O)c2)cc1
IC50 (second compound 0.1 µM): > 3 µM | IC50 (second compound 0.316 µM): > 3 µM | IC50 (second compound 1 µM): > 3 µM | IC50 (second compound 3.16 µM): > 3 µM | IC50 (second compound 10 µM): > 3 µM | viability, T/C (second compound 0.1 µM, first compound 0.00949 µM): 95.2% | viability, T/C (second compound 0.1 µM, first compound 0.03 µM): 97% | viability, T/C (second compound 0.1 µM, first compound 0.0949 µM): 109% | viability, T/C (second compound 0.1 µM, first compound 0.3 µM): 101% | viability, T/C (second compound 0.1 µM, first compound 0.949 µM): 85.1% | viability, T/C (second compound 0.1 µM, first compound 3 µM): 69.1% | viability, T/C (second compound 0.316 µM, first compound 0.00949 µM): 98.5% | viability, T/C (second compound 0.316 µM, first compound 0.03 µM): 100% | viability, T/C (second compound 0.316 µM, first compound 0.0949 µM): 105% | viability, T/C (second compound 0.316 µM, first compound 0.3 µM): 102% | viability, T/C (second compound 0.316 µM, first compound 0.949 µM): 88.2% | viability, T/C (second compound 0.316 µM, first compound 3 µM): 65.1% | viability, T/C (second compound 1 µM, first compound 0.00949 µM): 90.9% | viability, T/C (second compound 1 µM, first compound 0.03 µM): 104% | viability, T/C (second compound 1 µM, first compound 0.0949 µM): 117% | viability, T/C (second compound 1 µM, first compound 0.3 µM): 121% | viability, T/C (second compound 1 µM, first compound 0.949 µM): 84.1% | viability, T/C (second compound 1 µM, first compound 3 µM): 61.8% | viability, T/C (second compound 3.16 µM, first compound 0.00949 µM): 92.8% | viability, T/C (second compound 3.16 µM, first compound 0.03 µM): 92.4% | viability, T/C (second compound 3.16 µM, first compound 0.0949 µM): 104% | viability, T/C (second compound 3.16 µM, first compound 0.3 µM): 91.4% | viability, T/C (second compound 3.16 µM, first compound 0.949 µM): 76.9% | viability, T/C (second compound 3.16 µM, first compound 3 µM): 53.7% | viability, T/C (second compound 10 µM, first compound 0.00949 µM): 90% | viability, T/C (second compound 10 µM, first compound 0.03 µM): 101% | viability, T/C (second compound 10 µM, first compound 0.0949 µM): 102% | viability, T/C (second compound 10 µM, first compound 0.3 µM): 90.8% | viability, T/C (second compound 10 µM, first compound 0.949 µM): 78.5% | viability, T/C (second compound 10 µM, first compound 3 µM): 59.9%
